Measured values from patent US12077503B2, “Substituted cyclic amides and their use as herbicides” (FMC CORPORATION, priority 2015, dated 2024).

What was measured:
Assay type in all cases: in vivo
[1] = test system: pigweed (Amaranthus retroflexus); assay: Test A preemergence; conditions: Amaranthus retroflexus, pre-emergence, 240 h, 0 to 100 scale (0 no effect, 100 complete control), read-out: Plant response rating, Pigweed
[2] = test system: giant foxtail (Setaria faberii); assay: Test A preemergence; conditions: Setaria faberi, pre-emergence, 240 h, 0 to 100 scale (0 no effect, 100 complete control), read-out: Plant response rating, Foxtail, Giant
Procedure, shortened: (§1)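 Seeded soil received test chemicals as a preemergence directed spray, and seedlings at one to two leaves, 2–10 cm tall, received them postemergence, in a non-phytotoxic, surfactant-containing solvent mixture. Pots were held in a greenhouse for approximately 10 d, then rated for injury from 0, no effect, to 100, complete control.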

[3] = test system: ragweed (common ragweed, Ambrosia elatior); assay: Test A preemergence; conditions: Ambrosia artemisiifolia, pre-emergence, 240 h, 0 to 100 scale (0 no effect, 100 complete control), read-out: Plant response rating, Ragweed
Procedure, shortened: as §1

[4] = test system: ryegrass, Italian (Italian ryegrass, Lolium multiflorum); assay: Test A preemergence; conditions: Lolium multiflorum, pre-emergence, 240 h, 0 to 100 scale (0 no effect, 100 complete control), read-out: Plant response rating, Ryegrass, Italian
Procedure, shortened: as §1

Kochia (Kochia scoparia) [5] = assay: Test A preemergence; conditions: Bassia scoparia, pre-emergence, 240 h, 0 to 100 scale (0 no effect, 100 complete control), read-out: Plant response rating, Kochia
Procedure, shortened: as §1

[6] = test system: Galium (catchweed bedstraw, Galium aparine); assay: Test A postemergence; conditions: Galium, post-emergence, 240 h, Postemergence, read-out: Plant response rating, Galium
Procedure, shortened: as §1

[7] = test system: pigweed (Amaranthus retroflexus); assay: Test A postemergence; conditions: Amaranthus retroflexus, post-emergence, 240 h, Postemergence, read-out: Plant response rating, Pigweed
Procedure, shortened: as §1

[8] = test system: giant foxtail (Setaria faberii); assay: Test A postemergence; conditions: Setaria faberi, post-emergence, 240 h, Postemergence, read-out: Plant response rating, Foxtail, Giant
Procedure, shortened: as §1

corn (Zea mays) = assay: Test A postemergence; conditions: Zea mays, post-emergence, 240 h, Postemergence
Procedure, shortened: as §1

[9] = test system: barnyardgrass (Echinochloa crus-galli); assay: Test A postemergence; conditions: Echinochloa crus-galli, post-emergence, 240 h, Postemergence, read-out: Plant response rating, Barnyardgrass
Procedure, shortened: as §1

[10] = test system: blackgrass (Alopecurus myosuroides); assay: Test A postemergence; conditions: Alopecurus myosuroides, post-emergence, 240 h, Postemergence, read-out: Plant response rating, Blackgrass
Procedure, shortened: as §1

[11] = test system: ragweed (common ragweed, Ambrosia elatior); assay: Test A postemergence; conditions: Ambrosia artemisiifolia, post-emergence, 240 h, Postemergence, read-out: Plant response rating, Ragweed
Procedure, shortened: as §1

[12] = test system: ryegrass, Italian (Italian ryegrass, Lolium multiflorum); assay: Test A postemergence; conditions: Lolium multiflorum, post-emergence, 240 h, Postemergence, read-out: Plant response rating, Ryegrass, Italian
Procedure, shortened: as §1

Kochia (Kochia scoparia) [13] = assay: Test A postemergence; conditions: Bassia scoparia, post-emergence, 240 h, Postemergence, read-out: Plant response rating, Kochia
Procedure, shortened: as §1

[14] = test system: wheat (Triticum aestivum); assay: Test A postemergence; conditions: Triticum aestivum, post-emergence, 240 h, Postemergence, read-out: Plant response rating, Wheat
Procedure, shortened: as §1

[15] = 125 g ai/ha, visual injury after approx. 10 d, 0 to 100 scale, 0 no effect, 100 complete control
[16] = 500 g ai/ha, visual injury, 0 to 100 scale (0 no effect, 100 complete control), approx. 10 d

SMILES: Cc1c(F)cccc1NC(=O)[C@H]1C(=O)N(C)C[C@@H]1c1ccc(C(F)(F)F)cc1 [Compound 1386]
- pest or weed control at 500 g/ha ([1]; 500 g ai/ha, preemergence): 90%
- pest or weed control at 125 g/ha ([1]; Preemergence, 125 g ai/ha): 80%
- pest or weed control at 500 g/ha ([2]; 500 g ai/ha, preemergence): 90%
- pest or weed control at 125 g/ha ([2]; Preemergence, 125 g ai/ha): 90%
- pest or weed control at 500 g/ha ([3]; 500 g ai/ha, preemergence): 80%
- pest or weed control at 125 g/ha ([3]; Preemergence, 125 g ai/ha): 60%
- pest or weed control at 500 g/ha ([4]; 500 g ai/ha, preemergence): 70%
- pest or weed control at 125 g/ha ([4]; Preemergence, 125 g ai/ha): 50%
- pest or weed control at 500 g/ha (Kochia (Kochia scoparia) [5]; 500 g ai/ha, preemergence): 90%
- pest or weed control at 125 g/ha (Kochia (Kochia scoparia) [5]; Preemergence, 125 g ai/ha): 80%
- pest or weed control at 125 g/ha [6, 15]: 60%
- pest or weed control at 500 g/ha [6, 16]: 60%
- pest or weed control at 125 g/ha [7, 15]: 40%
- pest or weed control at 500 g/ha [7, 16]: 70%
- pest or weed control at 125 g/ha [8, 15]: 90%
- pest or weed control at 500 g/ha [8, 16]: 90%
- Corn plant response rating (crop injury, 0 = no effect, 100 = complete kill) at 125 g/ha (corn (Zea mays); [15]): 70%
- Corn plant response rating (crop injury, 0 = no effect, 100 = complete kill) at 500 g/ha (corn (Zea mays); [16]): 80%
- pest or weed control at 125 g/ha [9, 15]: 90%
- pest or weed control at 500 g/ha [9, 16]: 90%
- pest or weed control at 125 g/ha [10, 15]: 70%
- pest or weed control at 500 g/ha [10, 16]: 80%
- pest or weed control at 125 g/ha [11, 15]: 20%
- pest or weed control at 500 g/ha [11, 16]: 50%
- pest or weed control at 125 g/ha [12, 15]: 40%
- pest or weed control at 500 g/ha [12, 16]: 60%
- pest or weed control at 125 g/ha (Kochia (Kochia scoparia) [13]; [15]): 70%
- pest or weed control at 500 g/ha (Kochia (Kochia scoparia) [13]; [16]): 70%
- plant injury at 125 g/ha [14, 15]: 50%
- plant injury at 500 g/ha [14, 16]: 60%
